Test results from paper PMC8486263 (RSC Advances, 2020).

What was measured:
HIV-1 (strain LAI) = assay: microbe, parasite or virus in culture; format: cell-based; details: Human immunodeficiency virus 1, PBMC, 144 h; HIV-1 LAI, MOI 0.1, PHA/IL-2 stimulated human PBM cells, 6 days; read-out: anti-HIV-1 EC50
Experimental: The assay was performed as described previously,[23a,b] with some modifications described elsewhere.[23c] […] Supernatants were harvested, and HIV-1 RT was quantified. Median effective concentrations (EC50) were determined using described method.[23d]

HBV = assay: Antiviral assay against HBV in HepAD38 cells, real-time PCR for HBV DNA; format: cell-based; details: Hepatitis B virus, 168 h
Experimental: HepAD38 cells[24] were seeded at 50 000 cells per well in collagen-coated 96-well plates. Test compounds or 3TC (control) were added to HepAD38 cells to a final concentration of 10 μM. Real-time PCR for HBV DNA lasted 7 days. On day 7, total DNA was purified from supernatant using commercially available kit (DNeasy 96 Blood & Tissue kit, Qiagen). The HBV DNA was amplified in a real-time PCR assay using LightCycler 480 (Roche) as described elsewhere.[23c] All samples were tested in triplicate. Analysis: the concentration of compound that inhibited HBV DNA replication by 50% (EC50) was determined by linear regression.

in vitro = details: African green monkey
Experimental: These assays were performed in human PBM, T lymphoblast CEM-CCRF (CEM), African green monkey kidney (Vero) or human liver (HepG2) cells. Results represent means from triplicate wells.
These were performed in […] (PBM), T lymphoblast CEM-CCRF (CEM), African green monkey kidney (Vero) or human liver (HepG2) cells via MTT assay using the CellTiter 96®. Non-Radioactive Cell Proliferation (Promega) kit as previously described.[23c] Cytotoxicity was expressed as the concentration of test compounds that inhibited cell proliferation by 50% (IC50) and calculated using the Chou and Talalay method.[25]

Q: For `Cc1cn([C@H]2C[C@H](N=[N+]=[N-])[C@@H](CO)O2)c(=O)[nH]c1=O` [AZT, 3′-azido-3′-deoxythymidine], which EC50 (HIV-1 (strain LAI)) is on record?
A: 6 nM

Q: Which results are given for `Nc1ccn([C@@H]2CS[C@H](CO)O2)c(=O)n1` [Lamivudine]?
A: EC50 (HBV; 7 days, HBV DNA in supernatant, read-out: anti-HBV EC50): < 10000 nM; inhibition at 10 µM (HBV; at 10 μM, day 7): 97%

Q: With `C[C@@H]1C[C@@H]([C@H](O)CC2CC(=O)NC(=O)C2)C(=O)[C@@H](C)C1` [cycloheximide] as the compound, how does the IC50 (in vitro) read?
A: 500 nM
